# Like-named read-outs stand apart in the source and are kept apart here. *1 amine or outer side, *2 acyl side, *3 side chain or, on linkers, in order; H or OH if unused. Where a SMILES comes first, the peptide text is derived from it. Side-chain parts run from the residue outwards. [ ]: non-standard residue; d: D form. The star is where a group is joined. Isobutyryl(2-(3-CN-5-F-Ph)) = CC(C)(C(=O)*)c1cc(F)cc(C#N)c1; C20 diacid = O=C(O)CCCCCCCCCCCCCCCCCCC(=O)*; αMePhe(2-F) = C[C@](N)(Cc1ccccc1F)C(=O)O; γGlu = O=C(O)[C@H](CCC(=O)[*:2])N[*:1]; X40 = CC(C)(C(=O)*)n1cc(Cl)cn1; X60 = O=C(C1(c2cccnc2)CCCC1)*; X24 = O=C(C1(c2cccnc2)CCC1)*; X66 = NC(=O)C1(C(=O)*)CCC1; NH(2-ClPh) = Clc1ccccc1N*; AEEA = NCCOCCOCC(=O)O; Aib = CC(C)(N)C(=O)O; CO = O=C([*:1])[*:2]; GABA = NCCCC(=O)O; βAla = NCCC(=O)O
# Key:
# [1] = molecular target: GLP-1 receptor (Homo sapiens, UniProt P43220); assay: HitHunter cAMP assay, GLP-1 receptor; assay type: cell-based; settings: read-out: Emax GLP-1R
# [2] = molecular target: T1, GIP receptor (Homo sapiens, UniProt P48546); assay: HitHunter cAMP assay, GIP receptor; assay type: cell-based; settings: read-out: Emax GIP-1R
# T1 sequence (P48546 22-466): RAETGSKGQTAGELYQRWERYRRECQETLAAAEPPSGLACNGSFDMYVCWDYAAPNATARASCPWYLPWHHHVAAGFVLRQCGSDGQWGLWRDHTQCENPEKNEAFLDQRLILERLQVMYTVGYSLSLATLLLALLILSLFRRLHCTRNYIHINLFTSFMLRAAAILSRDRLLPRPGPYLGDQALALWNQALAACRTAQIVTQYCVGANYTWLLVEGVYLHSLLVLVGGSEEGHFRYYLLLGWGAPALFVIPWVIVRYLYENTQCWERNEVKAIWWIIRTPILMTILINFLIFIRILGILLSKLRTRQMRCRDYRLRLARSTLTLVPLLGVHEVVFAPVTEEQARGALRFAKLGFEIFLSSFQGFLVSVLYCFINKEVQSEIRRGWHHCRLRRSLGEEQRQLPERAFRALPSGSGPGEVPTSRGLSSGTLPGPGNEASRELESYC
# [3] = CHO cells, cAMP, normalized to maximum signal from GLP-1 (high) and DMSO (low)
# [4] = CHO cells, cAMP, normalized to maximum signal from GIP (high) and DMSO (low)
# GLP-1 receptor, sequence (P43220 24-463): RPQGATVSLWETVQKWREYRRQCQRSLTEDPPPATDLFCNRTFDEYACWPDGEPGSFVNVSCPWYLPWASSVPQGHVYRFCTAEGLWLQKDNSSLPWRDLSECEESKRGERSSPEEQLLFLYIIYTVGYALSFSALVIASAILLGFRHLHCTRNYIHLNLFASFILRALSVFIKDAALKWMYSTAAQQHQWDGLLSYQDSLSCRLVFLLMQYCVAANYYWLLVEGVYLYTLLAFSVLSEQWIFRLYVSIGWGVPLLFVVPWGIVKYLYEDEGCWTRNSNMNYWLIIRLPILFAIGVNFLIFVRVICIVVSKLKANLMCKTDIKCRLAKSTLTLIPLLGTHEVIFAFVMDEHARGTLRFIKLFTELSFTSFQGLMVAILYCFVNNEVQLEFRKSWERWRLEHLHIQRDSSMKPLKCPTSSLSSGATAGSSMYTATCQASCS
Structure (SMILES),"Emax [1, 3] [%]","Emax [2, 4] [%]",Emax ([1]; CHO) [%],Emax ([2]; CHO) [%]
CC[C@H](C)[C@H](NC(=O)[C@H](CC(C)C)NC(=O)[C@H](Cc1c[nH]c2ccccc12)NC(=O)[C@H](CCC(N)=O)NC(=O)[C@@H](NC(=O)[C@H](Cc1ccccc1)NC(=O)[C@H](C)NC(=O)[C@H](CCCCNC(=O)COCCOCCNC(=O)COCCOCCNC(=O)CC[C@H](NC(=O)CCCCCCCCCCCCCCCCCCC(=O)O)C(=O)O)NC(=O)[C@H](CCC(N)=O)NC(=O)[C@H](C)NC(=O)[C@@H](NC(=O)[C@H](CCCCN)NC(=O)[C@H](CC(=O)O)NC(=O)[C@H](CC(C)C)NC(=O)C(C)(C)NC(=O)[C@@H](NC(=O)[C@H](CO)NC(=O)[C@H](Cc1ccc(O)cc1)NC(=O)[C@H](CC(=O)O)NC(=O)[C@H](CO)NC(=O)[C@@H](NC(=O)[C@](C)(Cc1ccccc1F)NC(=O)[C@@H](NC(=O)CNC(=O)[C@H](CCC(=O)O)NC(=O)CCNC(=O)C(C)(C)c1cc(F)cc(C#N)c1)[C@@H](C)O)[C@@H](C)O)[C@@H](C)CC)[C@@H](C)CC)C(C)C)C(=O)N[C@@H](C)C(=O)NCC(N)=O [Compound 228] ({Isobutyryl(2-(3-CN-5-F-Ph))-βAla}-EGT[αMePhe(2-F)]TSDYSI[Aib]LDKIAQK([AEEA-AEEA-γGlu-C20 diacid])AFVQWLIAG-NH2; N-terminus and C-terminus assumed),100,105,,
CC[C@H](C)[C@H](NC(=O)[C@H](CC(C)C)NC(=O)[C@H](Cc1c[nH]c2ccccc12)NC(=O)[C@H](CCC(N)=O)NC(=O)[C@@H](NC(=O)[C@H](Cc1ccccc1)NC(=O)[C@H](C)NC(=O)[C@H](CCCCNC(=O)COCCOCCNC(=O)COCCOCCNC(=O)CC[C@H](NC(=O)CCCCCCCCCCCCCCCCCCC(=O)O)C(=O)O)NC(=O)[C@H](CCC(N)=O)NC(=O)[C@H](C)NC(=O)[C@@H](NC(=O)[C@H](CCCCN)NC(=O)[C@H](CC(=O)O)NC(=O)[C@H](CC(C)C)NC(=O)C(C)(C)NC(=O)[C@@H](NC(=O)[C@H](CO)NC(=O)[C@H](Cc1ccc(O)cc1)NC(=O)[C@H](CC(=O)O)NC(=O)[C@H](CO)NC(=O)[C@@H](NC(=O)[C@H](Cc1ccccc1)NC(=O)[C@@H](NC(=O)CNC(=O)[C@H](CCC(=O)O)NC(=O)CCNC(=O)C(C)(C)c1cc(F)cc(C#N)c1)[C@@H](C)O)[C@@H](C)O)[C@@H](C)CC)[C@@H](C)CC)C(C)C)C(=O)N[C@@H](C)C(=O)NCC(N)=O [Compound 229] ({Isobutyryl(2-(3-CN-5-F-Ph))-βAla}-EGTFTSDYSI[Aib]LDKIAQK([AEEA-AEEA-γGlu-C20 diacid])AFVQWLIAG-NH2; N-terminus and C-terminus assumed),102,107,,
CC[C@H](C)[C@H](NC(=O)[C@H](CC(C)C)NC(=O)[C@H](Cc1c[nH]c2ccccc12)NC(=O)[C@H](CCC(N)=O)NC(=O)[C@@H](NC(=O)[C@H](Cc1ccccc1)NC(=O)[C@H](C)NC(=O)[C@H](CCCCNC(=O)COCCOCCNC(=O)COCCOCCNC(=O)CC[C@H](NC(=O)CCCCCCCCCCCCCCCCCCC(=O)O)C(=O)O)NC(=O)[C@H](CCC(N)=O)NC(=O)[C@H](C)NC(=O)[C@@H](NC(=O)[C@H](CCCCN)NC(=O)[C@H](CC(=O)O)NC(=O)[C@H](CC(C)C)NC(=O)C(C)(C)NC(=O)[C@@H](NC(=O)[C@H](CO)NC(=O)[C@H](Cc1ccc(O)cc1)NC(=O)[C@H](CC(=O)O)NC(=O)[C@H](CO)NC(=O)[C@@H](NC(=O)[C@H](Cc1ccccc1)NC(=O)[C@@H](NC(=O)CNC(=O)[C@H](CCC(=O)O)NC(=O)CCNC(=O)C1(C(N)=O)CCC1)[C@@H](C)O)[C@@H](C)O)[C@@H](C)CC)[C@@H](C)CC)C(C)C)C(=O)N[C@@H](C)C(=O)NCC(=O)NCC(=O)N1CCC[C@H]1C(=O)N[C@@H](CO)C(=O)N[C@@H](CO)C(=O)NCC(=O)N[C@@H](C)C(=O)N1CCC[C@H]1C(=O)N1CCC[C@H]1C(=O)N1CCC[C@H]1C(=O)N[C@@H](CO)C(N)=O [Compound 257] ({X66-βAla}-EGTFTSDYSI[Aib]LDKIAQK([AEEA-AEEA-γGlu-C20 diacid])AFVQWLIAGGPSSGAPPPS-NH2; C-terminus assumed),,,89,92
CC[C@H](C)[C@H](NC(=O)[C@H](CC(C)C)NC(=O)[C@H](Cc1c[nH]c2ccccc12)NC(=O)[C@H](CCC(N)=O)NC(=O)[C@@H](NC(=O)[C@H](Cc1ccccc1)NC(=O)[C@H](C)NC(=O)[C@H](CCCCNC(=O)COCCOCCNC(=O)COCCOCCNC(=O)CC[C@H](NC(=O)CCCCCCCCCCCCCCCCCCC(=O)O)C(=O)O)NC(=O)[C@H](CCC(N)=O)NC(=O)[C@H](C)NC(=O)[C@@H](NC(=O)[C@H](CCCCN)NC(=O)[C@H](CC(=O)O)NC(=O)[C@H](CC(C)C)NC(=O)C(C)(C)NC(=O)[C@@H](NC(=O)[C@H](CO)NC(=O)[C@H](Cc1ccc(O)cc1)NC(=O)[C@H](CC(=O)O)NC(=O)[C@H](CO)NC(=O)[C@@H](NC(=O)[C@H](Cc1ccccc1)NC(=O)[C@@H](NC(=O)CNC(=O)[C@H](CCC(=O)O)NC(=O)CCNC(=O)C1(c2cccnc2)CCCC1)[C@@H](C)O)[C@@H](C)O)[C@@H](C)CC)[C@@H](C)CC)C(C)C)C(=O)N[C@@H](C)C(=O)NCC(N)=O [Compound 227] ({X60-βAla}-EGTFTSDYSI[Aib]LDKIAQK([AEEA-AEEA-γGlu-C20 diacid])AFVQWLIAG-NH2; N-terminus and C-terminus assumed),102,112,,
CC[C@H](C)[C@H](NC(=O)[C@H](CC(C)C)NC(=O)[C@H](Cc1c[nH]c2ccccc12)NC(=O)[C@H](CCC(N)=O)NC(=O)[C@@H](NC(=O)[C@H](Cc1ccccc1)NC(=O)[C@H](C)NC(=O)[C@H](CCCCNC(=O)COCCOCCNC(=O)COCCOCCNC(=O)CC[C@H](NC(=O)CCCCCCCCCCCCCCCCCCC(=O)O)C(=O)O)NC(=O)[C@H](CCC(N)=O)NC(=O)[C@H](C)NC(=O)[C@@H](NC(=O)[C@H](CCCCN)NC(=O)[C@H](CC(=O)O)NC(=O)[C@H](CC(C)C)NC(=O)C(C)(C)NC(=O)[C@@H](NC(=O)[C@H](CO)NC(=O)[C@H](Cc1ccc(O)cc1)NC(=O)[C@H](CC(=O)O)NC(=O)[C@H](CO)NC(=O)[C@@H](NC(=O)[C@H](Cc1ccccc1)NC(=O)[C@@H](NC(=O)CNC(=O)[C@H](CCC(=O)O)NC(=O)CCNC(=O)C(C)(C)n1cc(Cl)cn1)[C@@H](C)O)[C@@H](C)O)[C@@H](C)CC)[C@@H](C)CC)C(C)C)C(=O)N[C@@H](C)C(=O)NCC(=O)NCC(=O)N1CCC[C@H]1C(=O)N[C@@H](CO)C(=O)N[C@@H](CO)C(=O)NCC(=O)N[C@@H](C)C(=O)N1CCC[C@H]1C(=O)N1CCC[C@H]1C(=O)N1CCC[C@H]1C(=O)N[C@@H](CO)C(N)=O [Compound 247] ({X40-βAla}-EGTFTSDYSI[Aib]LDKIAQK([AEEA-AEEA-γGlu-C20 diacid])AFVQWLIAGGPSSGAPPPS-NH2; C-terminus assumed),101,105,,
CC[C@H](C)[C@H](NC(=O)[C@H](CC(C)C)NC(=O)[C@H](Cc1c[nH]c2ccccc12)NC(=O)[C@H](CCC(N)=O)NC(=O)[C@@H](NC(=O)[C@H](Cc1ccccc1)NC(=O)[C@H](C)NC(=O)[C@H](CCCCNC(=O)COCCOCCNC(=O)COCCOCCNC(=O)CC[C@H](NC(=O)CCCCCCCCCCCCCCCCCCC(=O)O)C(=O)O)NC(=O)[C@H](CCC(N)=O)NC(=O)[C@H](C)NC(=O)[C@@H](NC(=O)[C@H](CCCCN)NC(=O)[C@H](CC(=O)O)NC(=O)[C@H](CC(C)C)NC(=O)C(C)(C)NC(=O)[C@@H](NC(=O)[C@H](CO)NC(=O)[C@H](Cc1ccc(O)cc1)NC(=O)[C@H](CC(=O)O)NC(=O)[C@H](CO)NC(=O)[C@@H](NC(=O)[C@H](Cc1ccccc1)NC(=O)[C@@H](NC(=O)CNC(=O)[C@H](CCC(=O)O)NC(=O)CCCNC(=O)C1(c2cccnc2)CCC1)[C@@H](C)O)[C@@H](C)O)[C@@H](C)CC)[C@@H](C)CC)C(C)C)C(=O)N[C@@H](C)C(=O)NCC(=O)NCC(=O)N1CCC[C@H]1C(=O)N[C@@H](CO)C(=O)N[C@@H](CO)C(=O)NCC(=O)N[C@@H](C)C(=O)N1CCC[C@H]1C(=O)N1CCC[C@H]1C(=O)N1CCC[C@H]1C(=O)N[C@@H](CO)C(N)=O [Compound 251] ({X24-GABA}-EGTFTSDYSI[Aib]LDKIAQK([AEEA-AEEA-γGlu-C20 diacid])AFVQWLIAGGPSSGAPPPS-NH2; C-terminus assumed),91,92,,
CC[C@H](C)[C@H](NC(=O)[C@H](CC(C)C)NC(=O)[C@H](Cc1c[nH]c2ccccc12)NC(=O)[C@H](CCC(N)=O)NC(=O)[C@@H](NC(=O)[C@H](Cc1ccccc1)NC(=O)[C@H](C)NC(=O)[C@H](CCCCNC(=O)COCCOCCNC(=O)COCCOCCNC(=O)CC[C@H](NC(=O)CCCCCCCCCCCCCCCCCCC(=O)O)C(=O)O)NC(=O)[C@H](CCC(N)=O)NC(=O)[C@H](C)NC(=O)[C@@H](NC(=O)[C@H](CCCCN)NC(=O)[C@H](CC(=O)O)NC(=O)[C@H](CC(C)C)NC(=O)C(C)(C)NC(=O)[C@@H](NC(=O)[C@H](CO)NC(=O)[C@H](Cc1ccc(O)cc1)NC(=O)[C@H](CC(=O)O)NC(=O)[C@H](CO)NC(=O)[C@@H](NC(=O)[C@H](Cc1ccccc1)NC(=O)[C@@H](NC(=O)CNC(=O)[C@H](CCC(=O)O)NC(=O)CCCNC(=O)CNC(=O)Nc1ccccc1Cl)[C@@H](C)O)[C@@H](C)O)[C@@H](C)CC)[C@@H](C)CC)C(C)C)C(=O)N[C@@H](C)C(=O)NCC(=O)NCC(=O)N1CCC[C@H]1C(=O)N[C@@H](CO)C(=O)N[C@@H](CO)C(=O)NCC(=O)N[C@@H](C)C(=O)N1CCC[C@H]1C(=O)N1CCC[C@H]1C(=O)N1CCC[C@H]1C(=O)N[C@@H](CO)C(N)=O [Compound 259] ({NH(2-ClPh)-CO}-G[GABA]EGTFTSDYSI[Aib]LDKIAQK([AEEA-AEEA-γGlu-C20 diacid])AFVQWLIAGGPSSGAPPPS-NH2; C-terminus assumed),,,103,103

# From patent US12281149B2, “Modulators of G-protein coupled receptors” (priority 2021, dated 2025)
